Where “and” joins values, the source holds several entries; their conditions need not be identical. Equal values may be shown once.
Experiments:
[1] = molecular target: Human immunodeficiency virus type 1 protease (Human immunodeficiency virus 1) (UniProt Q72874); assay: Ability to increase whole-cell antiviral efficacy through better translation defined as the ratio between IC90 and Ki; format: functional
[2] = molecular target: Human immunodeficiency virus type 1 protease (Human immunodeficiency virus 1, UniProt Q72874); assay: Inhibitory activity against HIV protease
[3] = test system: Human immunodeficiency virus 1; assay: Antiviral potency was assessed by measuring the effect on accumulation of viral RNA transcripts 3 days after infection of MT-2 cells with HIV-1 RF; format: functional, MT2
[4] = Human immunodeficiency virus 1, MT2, 72 h

| SMILES | Ratio [1] | Ki [2] | IC90 [3, 4] | IC90 [3] |
| --- | --- | --- | --- | --- |
| CN(C)c1cccc(C[C@@H]2[C@H](O)[C@@H](O)[C@@H](Cc3cccc(N(C)C)c3)N(Cc3ccccc3)C(=O)N2Cc2ccccc2)c1 | 280 | 4.3 nM | 1200 nM |  |
| CS(=O)(=O)c1ccc(C[C@@H]2[C@H](O)[C@@H](O)[C@@H](Cc3ccc(S(C)(=O)=O)cc3)N(Cc3ccccc3)C(=O)N2Cc2ccccc2)cc1 | 190 | 2.5 nM | 470 nM |  |
| CN(C)c1ccc(C[C@@H]2[C@H](O)[C@@H](O)[C@@H](Cc3ccc(N(C)C)cc3)N(Cc3ccccc3)C(=O)N2Cc2ccccc2)cc1 | 60 | 46 nM | 2700 nM |  |
| O=C1N(CC2CC2)[C@H](Cc2cccs2)[C@H](O)[C@@H](O)[C@@H](Cc2cccs2)N1CC1CC1 | 860 | 9.1 nM | 7800 nM |  |
| COc1ccc(C[C@@H]2[C@H](O)[C@@H](O)[C@@H](Cc3ccc(OC)cc3)N(Cc3ccccc3)C(=O)N2Cc2ccccc2)cc1 | 70 | 8.6 nM | 600 nM |  |
| Cc1ccc(C)n1-c1cccc(C[C@@H]2[C@H](O)[C@@H](O)[C@@H](Cc3cccc(-n4c(C)ccc4C)c3)N(Cc3ccccc3)C(=O)N2Cc2ccccc2)c1 |  | 160 nM | > 10000 nM |  |
| O=C1N(Cc2ccccc2)[C@H](Cc2c[nH]c3ccccc23)[C@H](O)[C@@H](O)[C@@H](Cc2c[nH]c3ccccc23)N1Cc1ccccc1 |  | 580 nM | > 10000 nM |  |
| O=C1N(Cc2ccccc2)[C@H](Cc2ccc(O)cc2)[C@H](O)[C@@H](O)[C@@H](Cc2ccc(O)cc2)N1Cc1ccccc1 | 170 | 1.1 nM | 185 nM |  |
| Nc1ccc(C[C@@H]2[C@H](O)[C@@H](O)[C@@H](Cc3ccc(N)cc3)N(Cc3ccccc3)C(=O)N2Cc2ccccc2)cc1 [listing 1 of 3 here] |  | 8.5 nM | 1400 nM |  |
| CSCC[C@@H]1[C@H](O)[C@@H](O)[C@@H](CCSC)N(Cc2ccc(CO)cc2)C(=O)N1Cc1ccc(CO)cc1 |  | 3900 nM | > 10000 nM |  |
| CSCC[C@@H]1[C@H](O)[C@@H](O)[C@@H](CCSC)N(CC2CC2)C(=O)N1CC1CC1 |  |  | > 10000 nM |  |
| O=C1N(Cc2ccccc2)[C@H](Cc2ccc3ccccc3c2)[C@H](O)[C@@H](O)[C@@H](Cc2ccc3ccccc3c2)N1Cc1ccccc1 | 340 | 9.8 nM | 3300 nM |  |
| CC(C)[C@@H]1[C@H](O)[C@@H](O)[C@@H](C(C)C)N(CC2CC2)C(=O)N1CC1CC1 |  |  | > 10000 nM |  |
| COc1ccccc1C[C@@H]1[C@H](O)[C@@H](O)[C@@H](Cc2ccccc2OC)N(CC2CC2)C(=O)N1CC1CC1 |  | 65 nM | > 10000 nM |  |
| COc1cc(C[C@@H]2[C@H](O)[C@@H](O)[C@@H](Cc3cc(OC)cc(OC)c3)N(CC3CC3)C(=O)N2CC2CC2)cc(OC)c1 | 140 | 2.7 nM | 380 nM |  |
| CC(C)C[C@@H]1[C@H](O)[C@@H](O)[C@@H](CC(C)C)N(Cc2ccc(CO)cc2)C(=O)N1Cc1ccc(CO)cc1 |  | 38 nM | > 10000 nM |  |
| Nc1ccc(C[C@@H]2[C@H](O)[C@@H](O)[C@@H](Cc3ccc(N)cc3)N(Cc3ccccc3)C(=O)N2Cc2ccccc2)cc1 [listing 2 of 3 here] | 165 and 180 |  |  |  |
| Nc1ccc(C[C@@H]2[C@H](O)[C@@H](O)[C@@H](Cc3ccc(N)cc3)N(Cc3ccccc3)C(=O)N2Cc2ccccc2)cc1 [listing 3 of 3 here] |  | 7.1 nM |  | 1300 nM |
| O=C1N(Cc2ccccc2)[C@H](Cc2ccncc2)[C@H](O)[C@@H](O)[C@@H](Cc2ccncc2)N1Cc1ccccc1 |  | 22 nM | 5700 nM |  |
| O=C1N(CC2CC2)[C@H](Cc2cccc(O)c2)[C@H](O)[C@@H](O)[C@@H](Cc2cccc(O)c2)N1CC1CC1 | 200 | 13 nM | 2570 nM |  |
| O=C1N(Cc2ccc(CO)cc2)[C@H](CC2CCCCC2)[C@H](O)[C@@H](O)[C@@H](CC2CCCCC2)N1Cc1ccc(CO)cc1 |  | 32 nM | > 10000 nM |  |
| O=C1N(Cc2ccc(CO)cc2)[C@H](Cc2ccc(F)c(F)c2)[C@H](O)[C@@H](O)[C@@H](Cc2ccc(F)c(F)c2)N1Cc1ccc(CO)cc1 | 76 | 0.47 nM | 36 nM |  |
| CSc1cccc(C[C@@H]2[C@H](O)[C@@H](O)[C@@H](Cc3cccc(SC)c3)N(Cc3ccccc3)C(=O)N2Cc2ccccc2)c1 | 1700 | 2.5 nM | 4170 nM |  |
| COc1cccc(C[C@@H]2[C@H](O)[C@@H](O)[C@@H](Cc3cccc(OC)c3)N(Cc3ccc(CO)cc3)C(=O)N2Cc2ccc(CO)cc2)c1 | 340 | 0.11 nM | 37 nM |  |

| SMILES | Ratio [1] | Ki [2] | IC90 [3, 4] | IC90 [3] |
| --- | --- | --- | --- | --- |
| CC(C)c1ccc(C[C@@H]2[C@H](O)[C@@H](O)[C@@H](Cc3ccc(C(C)C)cc3)N(Cc3ccccc3)C(=O)N2Cc2ccccc2)cc1 |  | 1.1 nM | > 10000 nM |  |
| O=C1N(CC2CC2)[C@H](Cc2ccccc2)[C@H](O)[C@@H](O)[C@@H](Cc2ccccc2)N1CC1CC1 | 970 | 1.9 nM | 1840 nM |  |
| O=C1N(CC2CC2)[C@H](Cc2ccc3ccccc3c2)[C@H](O)[C@@H](O)[C@@H](Cc2ccc3ccccc3c2)N1CC1CC1 | 790 | 4.3 nM | 3400 nM |  |
| O=C1N(Cc2ccc(CO)cc2)[C@H](Cc2ccccc2)[C@H](O)[C@@H](O)[C@@H](Cc2ccccc2)N1Cc1ccc(CO)cc1 [DMP-323] | 500 | 0.27 nM | 136 nM |  |
| O=C1N(Cc2ccccc2)[C@H](Cc2ccccc2O)[C@H](O)[C@@H](O)[C@@H](Cc2ccccc2O)N1Cc1ccccc1 | 185 | 35 nM | 6500 nM |  |
| CC(C)C[C@@H]1[C@H](O)[C@@H](O)[C@@H](CC(C)C)N(CC2CC2)C(=O)N1CC1CC1 |  | 86 nM | > 10000 nM |  |
| COc1cccc(C[C@@H]2[C@H](O)[C@@H](O)[C@@H](Cc3cccc(OC)c3)N(CC3CC3)C(=O)N2CC2CC2)c1 | 750 | 0.87 nM | 650 nM |  |
| CC(C)C[C@@H]1[C@H](O)[C@@H](O)[C@@H](CC(C)C)N(Cc2ccccc2)C(=O)N1Cc1ccccc1 |  | 1700 nM | > 10000 nM |  |
| O=C1N(Cc2ccccc2)[C@H](Cc2ccccc2)[C@H](O)[C@@H](O)[C@@H](Cc2ccccc2)N1Cc1ccccc1 | 230 | 3.4 nM | 790 nM |  |
| O=C1N(Cc2ccccc2)[C@H](Cc2ccc3c(c2)OCO3)[C@H](O)[C@@H](O)[C@@H](Cc2ccc3c(c2)OCO3)N1Cc1ccccc1 | 385 | 1.3 nM | 500 nM |  |
| CSCC[C@@H]1[C@H](O)[C@@H](O)[C@@H](CCSC)N(Cc2ccccc2)C(=O)N1Cc1ccccc1 |  | 1100 nM | > 10000 nM |  |
| Nc1cccc(C[C@@H]2[C@H](O)[C@@H](O)[C@@H](Cc3cccc(N)c3)N(Cc3ccccc3)C(=O)N2Cc2ccccc2)c1 | 460 | 2.8 nM | 1300 nM |  |
| COc1cccc(C[C@@H]2[C@H](O)[C@@H](O)[C@@H](Cc3cccc(OC)c3)N(Cc3ccccc3)C(=O)N2Cc2ccccc2)c1 | 75 | 4.7 nM | 350 nM |  |
| O=C1N(Cc2ccc(CO)cc2)[C@H](Cc2ccc(F)cc2)[C@H](O)[C@@H](O)[C@@H](Cc2ccc(F)cc2)N1Cc1ccc(CO)cc1 | 230 | 0.44 nM | 100 nM |  |
| C[C@@H]1[C@H](O)[C@@H](O)[C@@H](C)N(Cc2ccccc2)C(=O)N1Cc1ccccc1 |  | 5000 nM | > 10000 nM |  |
| COc1ccc(C[C@@H]2[C@H](O)[C@@H](O)[C@@H](Cc3ccc(OC)cc3)N(Cc3ccc(CO)cc3)C(=O)N2Cc2ccc(CO)cc2)cc1 | 230 | 0.24 nM | 56 nM |  |
| COc1ccccc1C[C@@H]1[C@H](O)[C@@H](O)[C@@H](Cc2ccccc2OC)N(Cc2ccccc2)C(=O)N1Cc1ccccc1 | 150 | 60 nM | 8800 nM |  |
| CSc1ccc(C[C@@H]2[C@H](O)[C@@H](O)[C@@H](Cc3ccc(SC)cc3)N(Cc3ccccc3)C(=O)N2Cc2ccccc2)cc1 | 380 | 3.4 nM | 1300 nM |  |
| O=C1N(Cc2ccccc2)[C@H](CC2CCCCC2)[C@H](O)[C@@H](O)[C@@H](CC2CCCCC2)N1Cc1ccccc1 |  | 28 nM | > 10000 nM |  |
| O=C1N(CC2CC2)[C@H](Cc2ccc(F)cc2)[C@H](O)[C@@H](O)[C@@H](Cc2ccc(F)cc2)N1CC1CC1 | 550 | 5.8 nM | 3200 nM |  |
| COc1ccc(C[C@@H]2[C@H](O)[C@@H](O)[C@@H](Cc3ccc(OC)cc3)N(CC3CC3)C(=O)N2CC2CC2)cc1 | 110 | 2.9 nM | 320 nM |  |
| O=C1N(Cc2ccccc2)[C@H](Cc2ccoc2)[C@H](O)[C@@H](O)[C@@H](Cc2ccoc2)N1Cc1ccccc1 | 920 | 8.4 nM | 7800 nM |  |
| O=C1N(Cc2ccc(CO)cc2)[C@H](Cc2ccncc2)[C@H](O)[C@@H](O)[C@@H](Cc2ccncc2)N1Cc1ccc(CO)cc1 |  | 4.8 nM | > 10000 nM |  |
| O=C1N(Cc2ccccc2)[C@H](CCc2ccccc2)[C@H](O)[C@@H](O)[C@@H](CCc2ccccc2)N1Cc1ccccc1 |  | 320 nM | > 10000 nM |  |
